# From US10820823B2, “Evaluation of inhibitory circuit and use thereof” (INTER-UNIVERSITY RESEARCH INSTITUTE C[…] INSTITUTES OF …, priority 2015, dated 2020)
# Tests used:
# [1] = test system: inhibitory circuit (GABA-A early inhibition); experiment: Inhibition rate (prepulse attenuation) of auditory change-related brain activity by magnetoencephalography, before and after drug administration; assay type: in vivo, human; conditions: for effect of drug on inhibition: 5 mg single oral administration
# Experimental: In the present embodiment, an action of inhibitory circuits of 13 humans was evaluated using an excitatory circuit for a change response to a sound pressure change in an auditory system. As for the change response, when a sudden slight increase in sound pressure (10 dB) is generated in a background sound in which a short click sound (70 dB) of 1 ms is continuously generated at a frequency of 100 Hz, the human brain reacts thereto with very high sensitivity and a remarkable brain response is triggered.
# The evaluation system included a stimulus output unit and a brain activity measurement unit.
# Full-head measurement with the cerebral magnetic field measurement unit was performed using a magnetoencephalograph (306 channel magnetoencephalograph (Vector View, Neuromag, Helsinki, Finland)).
# Three kinds of stimuli, namely, the test stimulus, the preceding stimulus, and the test+preceding stimulus were sequentially applied to the subject at regular intervals from the stimulus output irnit through an insert earphone from the start of the test, and brain activity induced by the activation of the excitatory circuit at this time was measured as a cerebral magnetic field. […] A predetermined number of trials could be designated in the cerebral magnetic field measurement unit, addition was performed automatically, and an attenuation rate (inhibition rate) was obtained from the amplitude of the addition waveform.
# Effect of diazepam (5 mg single oral administration) on inhibition was examined by comparing the inhibition rates before and after the administration of the drug to two subjects of different types by the same recording procedure as in first embodiment. The amplitude of the response was taken between vertices of a component of 50 ms and a component of 100 ms (black triangles).
# [2] = test system: GABA-A early inhibition due to basket cells; conditions: slice specimens; cited from earlier work
compound,measurement,setting,value
CN1C(=O)CN=C(c2ccccc2)c2cc(Cl)ccc21 [diazepam],change of inhibition after the administration,"[1]; Subject 1 (strong inhibition before administration), diazepam 5 mg single oral administration, 1 hour after administration",little change
same,effect of drug on inhibition,[1]; Subject 1,small effect
same,inhibition rate after the administration,"[1]; Subject 2 (weak early inhibition before administration), diazepam 5 mg single oral administration, 1 hour after administration",45%
same,effect of drug on inhibition,[1]; Subject 2,strong effect
same,effect on GABA-A early inhibition due to basket cells,[2],enhances
